According to ChEMBL document CHEMBL1151202, “New imidazole alkaloids from the Indonesian sponge Leucetta chagosensis” (J Nat Prod, 2004):
Activity calls are given as the source filed them. The calls are words filed in the database; no cut-off is given here.

What was measured:
[1] = test system: Artemia salina; assay: Toxicity in Artemia salina at 20 ug/mL; assay type: organism-based; conditions: in vivo
[2] = test system: Cladosporium herbarum; assay: Antifungal activity against Cladosporium herbarum DSM 63422 at 20 ug/disk after 24 hrs by agar plate diffusion assay; assay type: functional
[3] = test system: HeLa; assay: Cytotoxicity against human HeLa cells at 10 ug/mL by MTT assay relative to control; assay type: functional
[4] = test system: L5178Y; assay: Cytotoxicity against mouse L5178Y cells at 10 ug/mL by MTT assay relative to control; assay type: functional
[5] = test system: PC-12; assay: Cytotoxicity against rat PC12 cells by MTT assay; assay type: functional, cell-based

In the case of `COc1ccc(-c2c3cc(O)c(OC)cc3cc3c2[nH]c(=N)n3C)cc1` [KEALIININE A], the Activity [1] is reported as 50% and the Activity [2] is reported as “inactive”.

In the case of `COc1ccc(Cc2[nH]c(=N)n(C)c2Cc2cc(OC)c(O)c(OC)c2)cc1` [NAAMINE G], the Activity [3] is reported as 29%, the Activity [4] is reported as 46% and the Activity [5] is reported as “inactive”. For the same compound, the Activity [1] was 10% and the zone of inhibition at 20 µg/disc ([2]; DSM 63422, 24 h, read-out: IZ) was 20 mm.
